Data from US11180504B2 (ORCHID PHARMA LTD., priority 2016, dated 2021).
Converted amounts (≈) assume the structure as drawn.

Legend:
[1] = system: carbapenem sensitive Pseudomonas aeruginosa; assay: MIC by broth micro-dilution (CLSI), carbapenem sensitive P. aeruginosa; assay type: cell-based; details: Pseudomonas aeruginosa, ATCC27853, Meropenem susceptible P. aeruginosa ATCC27853; read-out: MIC
[2] = system: carbapenem sensitive Escherichia coli; assay: MIC by broth micro-dilution (CLSI), carbapenem sensitive E. coli; assay type: cell-based; details: Escherichia coli, ATCC25922, ESBL −ve E. coli ATCC25922; read-out: MIC
[3] = system: extended spectrum β lactamase (ESBL) SHV18 producing Klebsiella pneumoniae; assay: MIC by broth micro-dilution (CLSI), ESBL SHV18 producing K. pneumoniae; assay type: cell-based; details: Klebsiella pneumoniae, ATCC700603, 22 h, ESBL +ve (SHV-18) K. pneumoniae ATCC700603; read-out: MIC
[4] = system: carbapenemase producing K. pneumoniae; assay: MIC by broth micro-dilution (CLSI), carbapenemase producing K. pneumoniae; assay type: cell-based, Klebsiella pneumoniae; details: Klebsiella pneumoniae, ATCCBAA1705, KPC-2 K. pneumoniae ATCC BAA-1705; read-out: MIC
[5] = system: methicillin-sensitive Staphylococcus aureus; assay: MIC by broth micro-dilution (CLSI), methicillin-sensitive S. aureus; assay type: cell-based; details: Staphylococcus aureus, ATCC 29213 / MSSA, MSSA S. aureus ATCC29213; read-out: MIC

Row | SMILES | MIC [1] [µg/mL] | MIC [2] [µg/mL] | MIC [3] [µg/mL] | MIC [4] [µg/mL] | MIC [5] [µg/mL]
1 | C[C@H]([C@H]1C(=O)N2C(C(=O)O)=C(SC3CN[C@H](C(=O)N4CCNCC4)C3)[C@H](C)[C@H]12)n1cc(CF)nn1 (stereo partly shown) [Example 207] | > 128 | 2 (≈ 3.94 µM) | 8 (≈ 15.8 µM) | 8 (≈ 15.8 µM) | 2 (≈ 3.94 µM)
2 | C[C@@H](NS(C)(=O)=O)[C@H]1C(=O)N2C(C(=O)O)=C(S[C@@H]3CN[C@H](C(=O)N4CCC(O)CC4)C3)[C@H](C)[C@H]12 [Example 24] | 32 to 64 (≈ 61.9 to 124 µM) | 0.5 (≈ 0.968 µM) | 1 (≈ 1.94 µM) | 4 (≈ 7.74 µM) | 16 (≈ 31 µM)
3 | C[C@@H](NS(=O)(=O)C(F)(F)F)[C@H]1C(=O)N2C(C(=O)O)=C(S[C@@H]3CN[C@H](C(=O)N4CC[C@@H](N)C4)C3)[C@H](C)[C@H]12 [Example 204] | > 128 | 8 (≈ 14.4 µM) | > 128 | > 128 | 32 (≈ 57.6 µM)
4 | C[C@@H](NS(C)(=O)=O)[C@H]1C(=O)N2C(C(=O)O)=C(S[C@@H]3CN[C@H](C(=O)N4CC[N+](C)(CC(N)=O)CC4)C3)[C@H](C)[C@H]12 [Example 39] | 16 | 4 | 16 | 16 | 16
5 | CONC(=O)CCNC(=O)[C@@H]1C[C@H](SC2=C(C(=O)O)N3C(=O)[C@H]([C@@H](C)NC(=O)C(F)F)[C@H]3[C@H]2C)CN1 [Example 115] | > 128 | 0.5 (≈ 0.937 µM) | 2 (≈ 3.75 µM) | 8 (≈ 15 µM) | 8 (≈ 15 µM)
6 | CNCC(=O)N[C@H](C)[C@H]1C(=O)N2C(C(=O)O)=C(S[C@@H]3CN[C@H](C(=O)N4CCN(C(=N)N)CC4)C3)[C@H](C)[C@H]12 [Example 361, (4R,5S,6R)-3-((3S,5S)-5-(4-carbamimidoylpiperazine-1-carbonyl)pyrrolidin-3-ylthio)-4-methyl-6-((R)-1-(2-(methylamino)acetamido)ethyl)-7-oxo-1-azabicyclo[3.2.0]hept-2-ene-2-carboxylic acid] | 2 (≈ 3.73 µM) | 1 (≈ 1.86 µM) | 4 (≈ 7.45 µM) | 2 (≈ 3.73 µM) | 8 (≈ 14.9 µM)
7 | C[C@@H](NC(=O)OCC(F)(F)F)[C@H]1C(=O)N2C(C(=O)O)=C(S[C@@H]3CN[C@H](C(=O)N(C)C)C3)[C@H](C)[C@H]12 [Example 47] | > 128 | 2 (≈ 3.93 µM) | 128 (≈ 252 µM) | 64 (≈ 126 µM) | 2 (≈ 3.93 µM)
8 | C[C@@H](N)C(=O)N[C@H](C)[C@H]1C(=O)N2C(C(=O)O)=C(S[C@@H]3CN[C@H](C(=O)N(C)C)C3)[C@H](C)[C@H]12 [Example 59] | 32 (≈ 70.6 µM) | 2 (≈ 4.41 µM) | 16 (≈ 35.3 µM) | > 128 | 32 (≈ 70.6 µM)
9 | C[C@@H]1CN(C(=O)[C@@H]2C[C@H](SC3=C(C(=O)O)N4C(=O)[C@H]([C@@H](C)NC(=O)C(F)F)[C@H]4[C@H]3C)CN2)CCN1 [Example 135] | 8 (≈ 15.5 µM) | 1 (≈ 1.94 µM) | 4 (≈ 7.76 µM) | 4 (≈ 7.76 µM) | 2 (≈ 3.88 µM)
10 | C[C@H]([C@H]1C(=O)N2C(C(=O)O)=C(SC3CN[C@H](C(=O)N(C)C)C3)[C@H](C)[C@H]12)n1cc(CN)nn1 (stereo partly shown) [Example 177] | 32 (≈ 69 µM) | 2 (≈ 4.31 µM) | 2 (≈ 4.31 µM) | 2 (≈ 4.31 µM) | 8 (≈ 17.3 µM)
11 | C[C@@H](NS(=O)(=O)c1cccs1)[C@H]1C(=O)N2C(C(=O)O)=C(S[C@@H]3CN[C@H](C(=O)N(C)C)C3)[C@H](C)[C@@H]12 [Example 33] | > 128 | 4 (≈ 7.57 µM) | 32 (≈ 60.5 µM) | 16 (≈ 30.3 µM) | 4 (≈ 7.57 µM)
12 | CC(C)C[C@H](N)C(=O)N[C@H](C)[C@H]1C(=O)N2C(C(=O)O)=C(S[C@@H]3CN[C@H](C(=O)N(C)C)C3)[C@H](C)[C@H]12 [Example 31] | > 128 | 4 (≈ 8.07 µM) | 16 (≈ 32.3 µM) | 4 (≈ 8.07 µM) | 16 (≈ 32.3 µM)
13 | CNCCN(C)C(=O)[C@@H]1C[C@H](SC2=C(C(=O)O)N3C(=O)[C@H]([C@@H](C)NC(=O)C(F)F)[C@H]3[C@H]2C)CN1 [Example 163] | 8 (≈ 15.9 µM) | 1 (≈ 1.99 µM) | 4 (≈ 7.94 µM) | 4 (≈ 7.94 µM) | 1 (≈ 1.99 µM)
14 | C[C@@H](NC(=O)C(F)F)[C@H]1C(=O)N2C(C(=O)O)=C(S[C@@H]3CN[C@H](C(=O)N4CC[C@H](NC5CC5)C4)C3)[C@H](C)[C@H]12 [Example 170] | 32 (≈ 59.1 µM) | 1 (≈ 1.85 µM) | 4 (≈ 7.39 µM) | 8 (≈ 14.8 µM) | 2 (≈ 3.69 µM)
15 | C[C@@H](NC(=O)C(F)F)[C@H]1C(=O)N2C(C(=O)O)=C(S[C@@H]3CN[C@H](C(=O)NCCO)C3)[C@H](C)[C@H]12 [Example 104] | 128 (≈ 269 µM) | 0.5 (≈ 1.05 µM) | 1 (≈ 2.1 µM) | 4 (≈ 8.39 µM) | 4 (≈ 8.39 µM)
16 | C[C@@H](NC(=O)Cc1cccs1)[C@H]1C(=O)N2C(C(=O)O)=C(S[C@@H]3CN[C@H](C(=O)N(C)C)C3)[C@H](C)[C@H]12 [Example 5] | > 128 | 8 (≈ 15.8 µM) | > 128 | > 128 | 8 (≈ 15.8 µM)
17 | C[C@@H](NC(=O)C(F)F)[C@H]1C(=O)N2C(C(=O)O)=C(S[C@@H]3CN[C@H](C(=O)N4CC[C@H](n5cc(CN)nn5)C4)C3)[C@H](C)[C@H]12 [Example 176] | 8 (≈ 13.7 µM) | 1 (≈ 1.72 µM) | 4 (≈ 6.87 µM) | 8 (≈ 13.7 µM) | 2 (≈ 3.43 µM)
18 | C[C@@H](NC(=O)C(F)F)[C@H]1C(=O)N2C(C(=O)O)=C(S[C@@H]3CN[C@H](C(=O)NCCC(=O)NCCO)C3)[C@H](C)[C@H]12 [Example 116] | > 128 | 0.5 (≈ 0.913 µM) | 2 (≈ 3.65 µM) | 4 (≈ 7.3 µM) | 8 (≈ 14.6 µM)
19 | C[C@@H](NC(=O)C(F)F)[C@H]1C(=O)N2C(C(=O)O)=C(S[C@@H]3CN[C@H](C(=O)N4C[C@H](O)[C@@H](O)C4)C3)[C@H](C)[C@H]12 [Example 198] | 32 (≈ 61.7 µM) | 0.25 (≈ 0.482 µM) | 1 (≈ 1.93 µM) | 4 (≈ 7.71 µM) | 2 (≈ 3.86 µM)
20 | C[C@@H](NC(=O)C(F)F)[C@H]1C(=O)N2C(C(=O)O)=C(S[C@@H]3CN[C@H](C(=O)N4CCN(C(=O)CN)CC4)C3)[C@H](C)[C@H]12 [Example 159] | 8 (≈ 14.3 µM) | 1 (≈ 1.79 µM) | 4 (≈ 7.16 µM) | 4 (≈ 7.16 µM) | 2 (≈ 3.58 µM)
21 | C[C@@H](NC(=O)C(F)F)[C@H]1C(=O)N2C(C(=O)O)=C(S[C@@H]3CNC(CN4CCCC4)C3)[C@H](C)[C@H]12 (stereo partly shown) [Example 81] | 64 (≈ 135 µM) | 1 (≈ 2.12 µM) | 8 (≈ 16.9 µM) | 8 (≈ 16.9 µM) | 1 (≈ 2.12 µM)
22 | C[C@@H](NC(=O)C(F)(F)CO)[C@H]1C(=O)N2C(C(=O)O)=C(S[C@@H]3CN[C@H](C(=O)N(C)C)C3)[C@H](C)[C@H]12 [Example 143] | 32 to 64 (≈ 65.2 to 130 µM) | 1 (≈ 2.04 µM) | 8 (≈ 16.3 µM) | 8 (≈ 16.3 µM) | 2 (≈ 4.08 µM)
23 | CCOC(=O)C(=O)N[C@H](C)[C@H]1C(=O)N2C(C(=O)O)=C(S[C@@H]3CN[C@H](C(=O)N4CC[C@H](N)C4)C3)[C@H](C)[C@H]12 [Example 109] | 4 (≈ 7.64 µM) | 4 (≈ 7.64 µM) | 4 (≈ 7.64 µM) | 16 (≈ 30.6 µM) | 8 (≈ 15.3 µM)
24 | CC(C)C[C@H](O)C(=O)N[C@H](C)[C@H]1C(=O)N2C(C(=O)O)=C(S[C@@H]3CN[C@H](C(=O)N(C)C)C3)[C@H](C)[C@H]12 [Example 67] | > 128 | 8 (≈ 16.1 µM) | > 128 | > 128 | 4 (≈ 8.05 µM)
25 | C[C@@H](NC(=O)C(F)F)[C@H]1C(=O)N2C(C(=O)O)=C(S[C@@H]3CN[C@H](C(=O)N4CCCNCC4)C3)[C@H](C)[C@H]12 [Example 162] | 16 (≈ 31 µM) | 0.5 (≈ 0.97 µM) | 4 (≈ 7.76 µM) | 4 (≈ 7.76 µM) | 1 (≈ 1.94 µM)
26 | CC(=O)OCC(=O)N[C@H](C)[C@H]1C(=O)N2C(C(=O)O)=C(S[C@@H]3CN[C@H](C(=O)N(C)C)C3)[C@H](C)[C@H]12 [Example 26] | 128 (≈ 265 µM) | 1 (≈ 2.07 µM) | 4 to 8 (≈ 8.29 to 16.6 µM) | 8 (≈ 16.6 µM) | 4 (≈ 8.29 µM)
27 | CC(F)C(=O)N[C@H](C)[C@H]1C(=O)N2C(C(=O)O)=C(S[C@@H]3CN[C@H](C(=O)N(C)C)C3)[C@H](C)[C@H]12 (mixture of isomers) [Example 84] | 128 | 1 | 4 | 16 | 4
28 | C[C@@H](NS(C)(=O)=O)[C@H]1C(=O)N2C(C(=O)O)=C(S[C@@H]3CN[C@H](C(=O)N(CCN)CCO)C3)[C@H](C)[C@H]12 [Example 201] | 16 (≈ 30.8 µM) | 2 (≈ 3.85 µM) | 16 (≈ 30.8 µM) | 64 (≈ 123 µM) | 16 (≈ 30.8 µM)
29 | C[C@@H](NC(=O)Cn1cnnn1)[C@H]1C(=O)N2C(C(=O)O)=C(S[C@@H]3CN[C@H](C(=O)N4CC5CCNCC5C4)C3)[C@H](C)[C@H]12 (single isomer, unassigned) [Example 527] | 1 (≈ 1.74 µM) | 0.125 (≈ 0.218 µM) |  | 1 (≈ 1.74 µM) | 4 (≈ 6.97 µM)
30 | C[C@@H](NC(=O)Cn1cnnn1)[C@H]1C(=O)N2C(C(=O)O)=C(S[C@@H]3CN[C@H](C(=O)N4CC5CNCC5C4)C3)[C@H](C)[C@H]12 (stereo partly drawn) [Example 540, (4R,5S,6R)-6-((R)-1-(2-(1H-tetrazol-1-yl)acetamido)ethyl)-4-methyl-3-((3S,5S)-5-(octahydropyrrolo-[3,4-c]pyrrole-2-carbonyl)pyrrolidin-3-ylthio)-7-oxo-1-azabicyclo[3.2.0]hept-2-ene-2-carboxylic acid] | 1 (≈ 1.79 µM) | 0.25 (≈ 0.447 µM) |  | 2 (≈ 3.57 µM) | 4 (≈ 7.15 µM)
